The conditions of data set [1]: relative to oxiracetan; cited from earlier work.
Data set [2] concerns ECS-induced amnesia. The data set can be described thus: Passive avoidance test, amnesia induced by electroconvulsive shock (ECS). Conditions: percentage of amnesia reversal, given 30 minutes before training, retention 24 hours later. It is filed as in vivo, Male CDI mice. The procedure:
In order to assess the antiamnesic activity the passive avoidance test in mince was used.
Male CDI mice weighing 25-26 g (charles River, Germany) fed on a normal diet, were used.
The compounds were administered i.p.; doses equimolar to 9.0 and 0.9 mg piracetam kg ⁻¹ were used.
The water-soluble compounds were dissolved in saline; the insoluble ones were dissolved in dimethylsulfoxide and then diluted in 2% Tween 80, ratio 1:4.
The apparatus for passive avoidance conditioning was a black plastic chamber (42 x 42 cm, height 40 cm), provided with a floor constructed of metal that could be electrified. From the front wall extended a white runway, 30 cm long and 10 cm wide provided with side walls 12 cm high, which led into the box through a guillotine door.
The animals, 30 minutes following treatment, were placed on the runways. After one minute of adaptation, the door was raised and the time employed by the animal to enter the darkened with all four feet, was recorded.
Upon entry, the guillotine door was lowered and 3 seconds thereafter the rods were electrified, 0.24 mA for 2 seconds. The mouse was then removed from the chamber and immediately administered and electroshock delivered through spring clips attached to the ears (square wave, intensity 20 mA, amplitude 0.6 msec, duration 0.5 s, frequency 50 Hz). Immediately thereafter the animal was placed in the housing cage. Retention was assessed 24 hours later by placing the animal on the runways and again evaluating the latency in entering the chamber, using an end-point of 300 s (crf. Brammer, loc. cit.).
In each experiment, two groups of animals in addition to the treated ones were used, that were defined as follows: • (1) ceiling control animals (treated with placebo and not subjected to ECS amnesia treatment) to ensure that these animals not treated with the amnesia agent remembered the task; • (2) base-line control animals (treated with placebo and subjected to ECS amnesia treatment) to ensure that ECS produced amnesia in the animals not treated with the compounds of the present invention.
The sum ΣAij encompasses all the possible pairs obtained by combining each term Xi with each term Xj.

In data set [3] the test system is male CDI Mice. The data set can be described thus: Behavioural profile (Irwin test). Type of data set: in vivo. Conditions: oral, the other doses (equimolar to 23, 5.4 and 1.4 mg piracetam/10mL/kg), monitored for 6 hours. The method, then: (§1) The behavioural profile was assessed in male CDI Mice (Charles River, Italy) weighing 22-24 g, using the Irwin test (IRWIN S., Drug screening and evaluation procedures; 136, 123-128, 1962). The animals had been caged under normal conditions and kept fasting for the last 18 hours.
(§2) Following administration of the compounds, the behaviour of the animals was monitored for 6 hours. The compounds were suspended in 10% arabic gum and orally administered at doses equimolar to 90, 23, 5.4 and 1.4 mg piracetam/10mL/kg of body weight.
(§3) The animals of the control groups were administered 10% arabic gum (10mL/kg, orally).

Data set [4] can be described thus: Behavioural profile (Irwin test). Type of data set: in vivo, male CDI Mice. To be noted: mouse, in vivo; oral, 90 mg/kg (equimolar to piracetam), monitored for 6 hours; read-out: death rate. The procedure: as §1, §2, §3
Setting [5] is: 0.9 mg/kg (i.p., dose equimolar to 0.9 mg piracetam kg-1).
Setting [6] is: 9mg/kg (i.p., dose equimolar to 9.0 mg piracetam kg-1).

`O=C1CC[C@@H](C(=O)O)N1` [L-pyroglutamic acid]: the “doses for nootropic activity, times as high as those of oxiracetan” value in data set [1] is reported as 5-10 times.
As to `NC(=O)CN1CCCC1=O` [Piracetam, reference compound], the “%AR” value in data set [2] (setting [5]) and in data set [2] (setting [6]) was 0% each time.
Turning to `CC(C)N(CCNC(=O)[C@@H]1CCCN1C(=O)OCc1ccccc1)C(C)C` [ST 691, (S)-1-[N-(BENZYLOXYCARBONYL)-PROLYL]-2,2(DIISOPROPYL)-ETHYLENDIAMINE], the “%AR” value in data set [2] (setting [5]) is reported as 52%; in data set [2] (setting [6]), 0%. The toxicity result in data set [3] is “non toxic”. In addition, the mortality at 6 h in data set [4] was 100%.
Consider `O=C(NCCO)[C@@H]1CCCN1C(=O)OCc1ccccc1` [ST 704, (S)-N-[N-(BENZYLOXYCARBONYL)-PROLYL]-ETHANOLAMINE], for which the “%AR” value in data set [2] (setting [5]) turned out to be 0%; in data set [2] (setting [6]) it was 46%.
For `O=C([C@@H]1CCCN1C(=O)OCc1ccccc1)N1CCN(c2cccc(Cl)c2)CC1` [ST 792, (S)-1-[N-(BENZYLOXYCARBONYL)-PROLYL]-4-(3-CHLOROPHENYL)-PIPERAZINE] the same measures were 26% and 0%.
For `CC(C)N(CCNC(=O)[C@@H]1CCCN1C=O)C(C)C` [ST 849, (S)-1-[N-(FORMYL)-PROLYL]-2.2(DIISOPROPYL)-ETHYLENDIAMINE] the same measures were 3% and 59%.

The record behind these values is EP0541497A1, “Prolineamide derivatives as enhancers of learning processes and memory and pharmaceutical compositions containing same” (Sigma-Tau Industrie Farmaceutiche Riunite S.p.A., priority 1991, dated 1993).
